Experimental data from US9951102B2, “Peptide inhibitor of Nox1 NADPH oxidase” (University of Iowa Research Foundation, priority 2014, dated 2018).
Where no end group is shown, it is not given here.

What was measured:
[1] = test system: Nox1 phosphorylation in A7r5 rat aortic VSMCs; experiment: TNF-α-stimulated Nox1 phosphorylation, anti-p22phox IP / anti-STY Western blot, A7r5 VSMCs; type: cell-based; conditions: CalC pretreatment 100 nM, TNF-α 10 ng/mL 10 minutes
Procedure: Equal volumes of samples were pre-cleared with Protein G Dynabeads (10 μL/1.5 mg protein in lysate) for 30 minutes at 4° C., end-over-end rotation, followed by a quick spin at high speed, then placed on a magnetic rack for 1 minute. SNT was removed to a new tube on ice. The p22^phox/Nox1 complex was immunoprecipitated using anti-p22^phox antibody C-17 (1 μg/500 μg protein in lysate) and rotated for 45 minutes at 4° C. (Hanna et al., 2004). Next, 20 μL Protein G Dynabeads was added to each sample and rotated for 20 minutes at 4° C., followed by a quick spin at high speed, then placed on a magnetic rack 1 m. SNT was moved to a new tube on ice and frozen for later analysis. The Dynabead pellet was washed three times with 200 μL NP40 buffer, followed by addition of 15 μL twice with sample buffer (4% SDS, 20% glycerol, 10% 2-mercaptoethanol, 0.004% bromphenol blue, 0.125 M Tris HCl, pH 6.8). […] Samples were then analyzed by WB.
One quarter volume of 5× sample buffer (6 g SDS, 40% glycerol, 30% 2-mercaptoethanol, 383.3 mg dithiothreitol, 372 mg EDTA, 378.3 mg Tris, 50 mg bromphenol blue in 50 ml ddH2O, pH 6.8) was added to lysates. […] Phosphorylation of Nox1 residues was determined utilizing a phospho-serine/threonine/tyrosine (p-STY) antibody that reacts with these residues only under phosphorylated conditions (Zhang et al., 2010, Chen et al., 2006). […]

[2] = test system: NADPH oxidase activity in VSMC membrane fractions; experiment: ROS detection by lucigenin-enhanced chemiluminescence; type: cell-based, rat; conditions: 30 minute pre-incubation, 100 nM DPI or 100 μM CalC, TNF-α 10 ng/mL 10 minutes
Procedure: A7r5 rat aortic smooth muscle cells were seeded at 75% confluence in 10% FBS medium, infected with AdNox1GFP for 48 hours, serum-starved in 0.2% FBS medium for 24 hours. Cells were then subjected to a 30 minute pre-incubation with 100 nM DPI or 100 μM CalC or DMSO, then treated with 10 ng/mL TNF-α for 10 minutes, washed three times in cold PBS, and homogenized in Homogenization Buffer (0.25 M sucrose, 10 mM triethanolamine, 4% protease inhibitor cocktail, 0.1 M EDTA, pH 7.4) with a Tissue Tearor. Lucigenin was then added to a final concentration of 5 μM. Samples were then analyzed by a FB12 Chemiluminometer every 10 seconds for 5 minutes. Then NADPH was added to a final concentration of 100 μM and readings were taken for another 5 m. Average baseline value was subtracted from the average NADPH-stimulated value.

[3] = test system: TNF-α-induced Nox1-dependent ROS production in WT VSMCs; experiment: ROS detection by CM-H2DCF fluorescence in VSMCs; type: cell-based, mouse; conditions: CalC pretreatment, TNF-α 10 ng/mL 30 minutes
Procedure: C57 WT or Nox1^−/y VSMCs were seeded on glass chamber slides at 75% confluence, serum-starved in cell culture medium containing no FBS for 24 h, washed in phenol red-free DMEM, and incubated in 10 μM CM-H2DCFDA for 30 m, pretreated with CalC or DMSO, and treated with 10 ng/mL TNF-α for 30 minutes. The cells were then washed 3×100 μL cold PBS, fixed with 2% paraformaldehyde for 15 minutes, washed twice with PBS, incubated in 1 μM To-Pro-3 for 5 minutes in dark, and washed twice with PBS. The chambers were removed and cells were mounted in Vectashield and imaged by confocal microscopy.
500 μL Opti-MEM was added to a 60 mm gelatin-coated cell culture plate. To this siPKC-β or siControl was added (final concentration 200 nM), plus 12 μL RNAiMax. Plates were rocked and incubated for 20 minutes. Cells were detached by use of trypsin, which was quenched in 10% FBS containing no antibiotics, centrifuged at 500 g for 5 minutes, resuspended in 5 mL 10% FBS without antibiotics and counted. Cells were added to plate for a seeding density of 75%, and medium was added to a final volume of 3 mL. Cells were incubated for 5 hours at 37° C., then medium was changed to 10% FBS. The next day, cells were serum starved in medium containing no FBS for 24 hours. Cells were then prepared for analysis by WB, DCF fluorescence or migration assay.

WT VSMC migration = experiment: Transwell migration assay to TNF-α; type: cell-based, mouse; conditions: CalC pretreatment 30 minutes, 5 hours migration
Procedure: WT or Nox1^−/y C57 mouse aortic VSMCs were pretreated with CalC or DMSO (vehicle) for 30 minutes, washed once with PBS, and cells were detached with trypsin, which was quenched with trypsin inhibitor. Cells were transferred to a conical tube, centrifuged at 500 g for 5 minutes. The SNT was aspirated, and cells were resuspended in 125 μL cell culture medium containing no FBS. Cell counts were obtained on a Beckman Z1 Coulter Particle Counter. Cells suspensions were diluted to a concentration of 1,000 cells/μL. 50 μL of the cell suspension was added to the upper chamber of a Costar Transwell Permeable Support (8.0 μm polycarbonate membrane, 6.5 mm insert). 500 μl medium containing no FBS with or without TNF-α was added to the lower chamber. […] Cells were fixed in 4% paraformaldehyde, membranes were removed from support with a scalpel and mounted in Vectashield plus DAPI, cover-slipped and five random fields from each membrane were imaged at 20× and the number of cells migrated to the bottom of the Transwell was counted. […]
500 μL Opti-MEM was added to a 60 mm gelatin-coated cell culture plate. […] Cells were detached by use of trypsin, which was quenched in 10% FBS containing no antibiotics, centrifuged at 500 g for 5 minutes, resuspended in 5 mL 10% FBS without antibiotics and counted. […] Cells were then prepared for analysis by WB, DCF fluorescence or migration assay.

[4] = target: T1, NoxA1 activation domain (AD) peptide LEPMDFLGKAKVV (Homo sapiens, UniProt Q86UR1); experiment: Isothermal titration calorimetry peptide interaction; type: binding; conditions: ITC, 25° C., pH 7.4, n=3 independent experiments, ± standard deviation; read-out: Affinity (Kd) for the interaction with NoxA1 AD peptide
T1 construct: purchased ProImmune
Procedure: The affinity of the interaction between non-phosphorylated and phosphorylated Nox1 and NoxA1 was determined by isothermal titration calorimetry (ITC). Phosphorylated or non-phosphorylated peptides corresponding to amino acids KLKTQKIYF (SEQ ID NO:9) of Nox1 and a peptide corresponding to amino acids LEPMDFLGKAKVV (SEQ ID NO:10) of NoxA1 peptides were purchased from ProImmune. The peptides were resuspended in 20 mM Na2HPO4, 100 mM […], pH 7.4 to a final concentration of 800 μM (Nox1) and 20 μM (NoxA1). The peptides were degassed and ITC measurements recorded using a MicroCal VP-ITC System (GE Healthcare). 21 injections of Nox1 peptides into NoxA1 peptide were used, with 240 s spacing between events. The chamber was kept under constant stirring at 350 rpm and all experiments were performed at 25° C. […] The constant heat of dilution, as determined by the average of the last 3-5 injections, was subtracted and the data are analyzed using the single site binding model provided in the ITC analysis package. The values for affinity and stoichiometry from three experiments were averaged and shown±standard deviation.

Row | Compound | TNF-α-stimulated Nox1 phosphorylation [1] | TNF-α-primed NADPH oxidase activity (lucigenin-enhanced chemiluminescence) [2] | Nox1-dependent ROS production (CM-H2DCF fluorescence) [3] | Migration of WT VSMCs to TNF-α (WT VSMC migration) | Kd [4]
1 | COc1c(C[C@@H](C)OC(=O)Oc2ccc(O)cc2)c2c3c(C[C@@H](C)OC(=O)c4ccccc4)c(OC)c(=O)c4c(O)cc(OC)c(c5c(OC)cc(O)c(c1=O)c52)c43 [CalC, Calphostin C] | inhibited | completely abolished | abrogated | blocked | 
2 | [Cl-].c1ccc2c(c1)[I+]c1ccccc1-2 [DPI, Diphenyleneiodoium chloride] |  | completely abolished |  |  | 
3 | KLKTQKIYF [Nox1 peptide, KLKTQKIYF] |  |  |  |  | > 100 µM
